# Laboratory results taken from US20100016434A1, “Inhibitors of Egln3 Activity for the Treatment of Neurodegenerative Disorders” (priority 2005, published 2010).
# Experiments:
# PC12 cells [1] = assay: Apoptosis after NGF withdrawal in differentiated PC12 cells (GFP-Histone nuclei scoring); assay type: cell-based, rat
# Procedure: FIG. 5: (A) Anti-SM20/EGLN3 immunoblot analysis of PC12 cells treated as in FIG. 3A. SM-20 in vitro translate included in lane 1 as a control. (B and D) Representative fluorescent photomicrographs (B) and anti-HA immunoblot analysis (D) of PC12 cells transfected to produce GFP-Histone and the indicated HA-EGLN species. White arrows in […] indicate apoptotic nuclei. (C) Percent of GFP-positive nuclei with apoptotic changes after transfection with 0.5 or 1.0 μg of the indicated plasmids. (E and F) Representative fluorescent photomicrographs of PC12 cells transfected with the indicated siRNAs and a plasmid encoding GFP-Histone followed by treatment with NGF for […] (‘+NGF’), which was then withdrawn for 24 hours (‘−NGF’). White arrows indicate apoptotic nuclei, which were quantitated in (E) as percent of GFP-positive nuclei. (G and H) Representative fluorescent photomicrographs (F) of PC12 cells transfected to produce GFP-Histone and treated with NGF for 5 days (‘+NGF’), which was then withdrawn for 24 hours (‘−NGF’). Where indicated cells were exposed to 100 μM CoCl2 or 1% hypoxia during NGF withdrawal. White arrows indicate apoptotic nuclei, which were quantitated in (G) as % of GFP-positive nuclei.
# (§1) (B) FACS profiles of PC12 cells stained with the ROS-sensitive dye CM-H2DCFDA after treatment with the indicated SDH inhibitors or the ROS-inducing agent Rotenone (Ro; 20 μM) in the presence or absence of the ROS scavenger ascorbic acid (AA; 100 μM). C=control. (C and D) Representive fluorescent photomicrographs of PC12 cells (C) transfected to produce GFP-Histone alone (GFP-His) or GFP-Histone and EGLN3 (EGLN3). The SDH inhibitors 3-NPA (300 t-IM), MA (300 I-LM), or TTFA (200 ˜M) were added where indicated. White arrows indicate apoptotic nuclei, which were quantitated in (D) as percent of GFP-positive nuclei. (E) Immunoblot analysis of PC12 cells treated with the indicated chemicals or vehicle (C). (F) Percent of GFP-positive PC12 nuclei undergoing apoptosis after transfection to produce GFP-Histone alone (GFP-His) or GFP-Histone and EGLN3 (EGLN3) in the presence or absence of SDH inhibitors. 100 μM AA was also present where indicated. (G) Percent of GFP-positive PC 12 nuclei undergoing apoptosis after transfection with the indicated siRNAs and a plasmid encoding GFP-Histone followed by treatment with NGF for 5 days (‘+NGF’), which was then withdrawn for 24 hours (‘−NGF’). […]
# (§2) Undifferentiated PC12 cells were plated onto collagen-coated 6-well plates 1 day before transfection with LIPOFECTAMINE 2000 reagent (Invitrogen) according to the manufacturer's instructions. […] Nuclei that were condensed or fragmented were scored as apoptotic. Approximately 400 cells were scored for each set of conditions and all assays were performed in triplicate.
# JunB = assay: Immunoblot analysis of JunB in 786-O renal carcinoma subclones; assay type: cell-based, human; settings: 786-O cells treated with PKC inhibitor
# Procedure: FIG. 2: (A) Immunoblot analysis of 786-O VHL(−/−) renal carcinoma cells retrovirally infected to produce the indicated short hairpin RNAs (shRNA) or wild-type pVHL (VHL). (B) Immunoblot analyis of RC3 cells and WT7 cells; where indicated, WT7 cells were treated with DFO or infected to produce HIF2α P405A; P531A or with empty retrovirus. (C) Immunoblot analysis of indicated 786-O subclones grown in presence or absence of DFO; (*)=non-specific band. (D) Immunoblot analysis of A498 and 786-O cells transfected to produce the indicated HA-pVHL variants or with empty vector. Arrow indicates a slowly migrating form of aPKC. (E) In vitro aPKC activity. Anti-aPKC immunoprecipitates of the indicated cell lines under antibody excess conditions were incubated with a peptidic aPKC substrate in the presence of ^32P-γ-ATP. Shown are incorporated ^32P values. (F) Immunoblot analysis of 786-O cells treated with the PKC inhibitor GF109230X.
# Twenty μg of nuclear extract per lane, prepared using a NE-PER extraction kit (Pierce Biotechnology, Inc., Rockford Ill.) and measured by the Bradford assay, was resolved on 10% or 12% SDS-PAGE gels and transferred to nitrocellulose membrane (Bio-Rad Laboratories, Hercules Calif.) to detect endogenous JunB and HIF2α. […] Bound protein was detected with a Horseradish Peroxidase (HRP)-conjugated secondary antibodies and an enhanced chemiluminesence kit (Pierce).
# HIF2α = assay: Immunoblot analysis of HIF2α in 786-O cells; assay type: cell-based, human; settings: 786-O cells treated with PKC inhibitor
# Source text: (A and B) Immunoblot analysis of 786-O cells treated with the PKC inhibitor GF109230X.
# Twenty μg of nuclear extract per lane, prepared using a NE-PER extraction kit (Pierce Biotechnology, Inc., Rockford Ill.) and measured by the Bradford assay, was resolved on 10% or 12% SDS-PAGE gels and transferred to nitrocellulose membrane (Bio-Rad Laboratories, Hercules Calif.) to detect endogenous JunB and HIF2α. After blocking in TBS with 5% nonfat milk, the membranes were probed with anti-JunB monoclonal antibody (C-11; Santa Cruz Biotechnology, Inc., Santa Cruz Calif.) or anti-HIF2α rabbit polyclonal antibody (NB100-122; Novus Biologicals, Inc., Littleton Colo.). Bound protein was detected with a Horseradish Peroxidase (HRP)-conjugated secondary antibodies and an enhanced chemiluminesence kit (Pierce).
# PC12 cells [2] = assay: ROS analysis by FACS with CM-H2DCFDA; assay type: cell-based, rat; settings: 100 μM AA
# Procedure: (B) FACS profiles of PC12 cells stained with the ROS-sensitive dye CM-H2DCFDA after treatment with the indicated SDH inhibitors or the ROS-inducing agent Rotenone (Ro; 20 μM) in the presence or absence of the ROS scavenger ascorbic acid (AA; 100 μM). C=control. (C and D) Representive fluorescent photomicrographs of PC12 cells (C) transfected to produce GFP-Histone alone (GFP-His) or GFP-Histone and EGLN3 (EGLN3). The SDH inhibitors 3-NPA (300 t-IM), MA (300 I-LM), or TTFA (200 ˜M) were added where indicated. White arrows indicate apoptotic nuclei, which were quantitated in (D) as percent of GFP-positive nuclei. (E) Immunoblot analysis of PC12 cells treated with the indicated chemicals or vehicle (C). (F) Percent of GFP-positive PC12 nuclei undergoing apoptosis after transfection to produce GFP-Histone alone (GFP-His) or GFP-Histone and EGLN3 (EGLN3) in the presence or absence of SDH inhibitors. 100 μM AA was also present where indicated. (G) Percent of GFP-positive PC 12 nuclei undergoing apoptosis after transfection with the indicated siRNAs and a plasmid encoding GFP-Histone followed by treatment with NGF for 5 days (‘+NGF’), which was then withdrawn for 24 hours (‘−NGF’).
# PC12 cells were incubated for 1 hr with 5 μM CM-H2DCFDA (Molecular Probes), harvested, resuspended at 10^6 cells/ml in PBS supplemented with 7% FBS, and analyzed by FACS.
# PC12 cells [3] = assay: EGLN3-induced apoptosis in transfected undifferentiated PC12 cells (GFP-Histone nuclei scoring); assay type: cell-based, rat; settings: coadministration of 100 μM AA with SDH inhibitors
# Procedure: as §1, with “indicated.” for “indicated. (G) Percent of GFP-positive PC 12 nuclei undergoing apoptosis after transfection with the indicated siRNAs and a plasmid encoding GFP-Histone followed by treatment with NGF for 5 days (‘+NGF’), which was then withdrawn for 24 hours (‘−NGF’).”
# as §2, with “triplicate. […]” for “triplicate.”
# EGLN3 = biological target: T1, EGLN3 (Homo sapiens, UniProt Q9H6Z9); assay: EGLN3 hydroxylation assay: HIF1α-derived peptide, capture of 35S-labeled pVHL; assay type: biochemical; settings: increasing amount of succinate; EGLN3 in vitro translate
# T1 construct: HA; made in house; host or cells: in vitro translation in reticulocyte lysate
# T1 sequence (Q9H6Z9 whole entry): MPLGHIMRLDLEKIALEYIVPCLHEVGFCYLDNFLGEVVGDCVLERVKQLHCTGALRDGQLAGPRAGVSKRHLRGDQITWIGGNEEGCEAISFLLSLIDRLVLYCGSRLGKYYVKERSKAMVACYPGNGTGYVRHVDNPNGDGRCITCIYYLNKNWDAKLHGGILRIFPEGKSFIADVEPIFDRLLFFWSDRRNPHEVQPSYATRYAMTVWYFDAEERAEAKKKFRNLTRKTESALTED
# [4] = SDH inhibitors 300 μM, NGF withdrawn for 24 hours
compound,measurement,setting,value
"O=C(O)CCC(=O)C(=O)O [2-OG, 2-oxoglutarate]",Apoptosis after NGF withdrawal in SDH D siRNA-transfected cells,PC12 cells [1]; 0.5 mM 2-oxoglutarate added to the media 24 hours before NGF withdrawal,partially restored
"O=C(O)CC[N+](=O)[O-] [3-NPA, 3-nitroproprionic acid]",Apoptosis after NGF withdrawal,PC12 cells [1]; [4],diminished apoptosis
CN(C)CCCn1cc(C2=C(c3c[nH]c4ccccc34)C(=O)NC2=O)c2ccccc21 [GF109203X],JunB levels,JunB,downregulated
same,HIF2α levels,HIF2α,does not affect
"O=C(O)CC(=O)O [MA, malonic acid]",Apoptosis after NGF withdrawal,PC12 cells [1]; [4],diminished apoptosis
O=C1O[C@H]([C@@H](O)CO)C(O)=C1O [ascorbic acid],ROS induction by SDH inhibitors,PC12 cells [2],blocking ROS induction
same,Effect on the action of the SDH inhibitors on EGLN3-induced apoptosis,PC12 cells [3],failed to mitigate
[Cl][Co][Cl] [cobalt chloride],Apoptosis after NGF withdrawal,"PC12 cells [1]; 100 μM CoCl2 during NGF withdrawal, 24 hours",decreased
O=C(O)CCC(=O)O [succinate],EGLN3 hydroxylase activity,EGLN3,diminished
